Structures are written as SMILES. Where only a bound is given, the exact number is not on record here.

Test [1] has as its system PC-12. Nature of the test: Selectivity index, ratio of Ki for sigma2 receptor in Sprague-Dawley rat liver membranes to Ki for rat VAChT expressed in PC12 cell membranes. Type of test: cell-based.
Test [2] has as its target Sigma non-opioid intracellular receptor 1 (Rattus norvegicus, UniProt Q9R0C9). Briefly: Displacement of […] from sigma1 receptor in Sprague-Dawley rat cortical membranes incubated for 2 hrs by liquid scintillation counting based competitive radioligand binding assay. The following applies: read-out: Ki(app).
Test [3] has as its target T1, Vesicular acetylcholine transporter (Rattus norvegicus, UniProt Q62666).
T1 sequence (Q62666 whole entry): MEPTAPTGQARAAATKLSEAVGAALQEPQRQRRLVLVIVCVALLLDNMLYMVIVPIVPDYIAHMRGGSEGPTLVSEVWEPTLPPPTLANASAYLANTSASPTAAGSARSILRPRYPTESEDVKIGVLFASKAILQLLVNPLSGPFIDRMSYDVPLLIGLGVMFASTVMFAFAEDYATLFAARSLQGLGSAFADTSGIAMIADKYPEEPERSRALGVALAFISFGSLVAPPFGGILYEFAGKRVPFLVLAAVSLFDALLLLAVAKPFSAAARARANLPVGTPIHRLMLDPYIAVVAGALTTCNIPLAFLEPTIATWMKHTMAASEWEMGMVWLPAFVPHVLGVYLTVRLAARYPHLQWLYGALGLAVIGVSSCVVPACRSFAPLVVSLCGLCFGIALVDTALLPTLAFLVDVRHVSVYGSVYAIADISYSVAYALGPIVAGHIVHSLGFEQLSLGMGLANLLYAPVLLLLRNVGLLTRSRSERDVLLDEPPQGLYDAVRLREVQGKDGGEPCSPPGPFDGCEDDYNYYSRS
Briefly: Displacement of (-)-[3H]vesamicol from rat VAChT expressed in PC12 cell membranes incubated for 2 hrs by liquid scintillation counting based competitive radioligand binding assay. Also noted: species or system PC-12. The following applies: read-out: Ki(app).

Test [4] is described as follows: Displacement of [3H]DTG from sigma2 receptor in Sprague-Dawley rat liver membranes incubated for 2 hrs in presence of dextrallorphan by liquid scintillation counting based competitive radioligand binding assay. The following applies: read-out: Ki(app). (In general: Displacement assays read how much labelled ligand stays bound in the presence of the test substance.)

The test system of test [5] is PC-12. Briefly: Selectivity index, ratio of Ki for sigma1 receptor in Sprague-Dawley rat cortical membranes to Ki for rat VAChT expressed in PC12 cell membranes. Format: cell-based.

Sigma non-opioid intracellular receptor 1, sequence (Q9R0C9 whole entry): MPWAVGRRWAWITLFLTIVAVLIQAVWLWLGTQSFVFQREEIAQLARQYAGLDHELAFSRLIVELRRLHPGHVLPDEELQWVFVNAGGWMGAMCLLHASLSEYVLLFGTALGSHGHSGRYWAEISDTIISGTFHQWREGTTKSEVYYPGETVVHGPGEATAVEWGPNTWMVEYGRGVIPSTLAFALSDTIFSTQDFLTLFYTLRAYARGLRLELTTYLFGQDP

Regarding `O[C@@H]1CC[C@@H](OCc2ccc(F)cc2)C[C@H]1N1CCC(c2ccncc2)CC1` (racemic), the Ratio Ki in test [1] and in test [5] was below 0.1 throughout. Further, the Ki in test [2] came to 26.4 nM; in test [3] it was 1350 nM; in test [4], 85.8 nM.
On to `O[C@@H]1C[C@@H](OCc2ccc(F)cc2)CC[C@H]1N1CCC(c2ccccc2)CC1` (racemic), for which the Ratio Ki in test [1] and in test [5] was below 0.1 each time. The Ki in test [2] came to 16.8 nM; in test [3], 2390 nM; in test [4] it was 67.1 nM.
As to `O[C@@H]1C[C@@H](OCc2ccc(F)cc2)CC[C@H]1N1CCN(c2ccccc2)CC1` (racemic), the results for the Ratio Ki in test [1] and in test [5] were 0.2 and below 0.1, respectively. Moreover, the results for the Ki in test [2], in test [3] and in test [4] were 189 nM, 6190 nM and 1040 nM, respectively.
As for `O[C@@H]1C[C@@H](OCc2ccc(F)cc2)CC[C@H]1N1CC=C(c2ccccc2)CC1` (racemic), the Ratio Ki in test [1] and in test [5] was below 0.1 throughout. The results for the Ki in test [2], in test [3] and in test [4] were 15.9 nM, 2830 nM and 55.5 nM, respectively.
For `CCN(CCCc1ccccc1)[C@@H]1CC[C@H](OCc2ccc(F)cc2)C[C@H]1O` (racemic), the Ratio Ki in test [1] is 0.1; in test [5], below 0.1. Besides, the Ki in test [2] came to 19.7 nM; in test [3], 1930 nM; in test [4], 280 nM.
For the molecule `O[C@@H]1C[C@@H](OCc2ccc(F)cc2)CC[C@H]1N1CCC(O)(c2ccccc2)CC1` (racemic), the Ki in test [2] was 31 nM; in test [3], above 10000 nM; in test [4], 254 nM.
Consider `CC(=O)C1(c2ccccc2)CCN([C@@H]2CC[C@H](OCc3ccc(F)cc3)C[C@H]2O)CC1` (racemic), for which the figures for the Ki in test [2], in test [3] and in test [4] were 120 nM, above 10000 nM and 103 nM, respectively.
Consider `O[C@@H]1C[C@@H](OCc2ccc(F)cc2)CC[C@H]1N1CCC(c2ccccc2)(c2ccccc2)CC1` (racemic), for which the Ratio Ki in test [1] stood at 2; in test [5], 0.3. For the same molecule, the Ki was 736 nM in test [2], 2730 nM in test [3] and 5540 nM in test [4].
Turning to `O[C@@H]1C[C@@H](OCc2ccc(F)cc2)CC[C@H]1N1CCC(Cc2ccccc2)CC1` (racemic), the Ratio Ki in test [1] was 0.2; in test [5] it was below 0.1. Also, the results for the Ki in test [2], in test [3] and in test [4] were 9.2 nM, 1300 nM and 207 nM, respectively.
Turning to `O[C@@H]1C[C@@H](OCc2ccc(F)cc2)CC[C@H]1N1CCc2ccccc2C1` (racemic), the Ki in test [2] is 23.1 nM; in test [3], above 10000 nM; in test [4] it was 45.6 nM.
On to `O[C@@H]1C[C@@H](OCc2ccc(F)cc2)CC[C@H]1N1CCC(N2CCCCC2)CC1` (racemic), for which the Ki is 300 nM in test [2], above 10000 nM in test [3] and 374 nM in test [4].
In the case of `O=C(c1ccc(F)cc1)C1CCN([C@@H]2CC[C@H](OCc3ccc(F)cc3)C[C@H]2O)CC1` (racemic), the values for the Ratio Ki in test [1] and in test [5] were 0.3 and below 0.1, respectively. The Ki in test [2] was determined as 65.4 nM; in test [3] it was 5840 nM; in test [4], 2000 nM.
Turning to `O[C@@H]1C[C@@H](OCc2ccc(F)cc2)CC[C@H]1N1CCC(c2ccncc2)CC1` (racemic), the values for the Ki in test [2], in test [3] and in test [4] were 41.1 nM, above 10000 nM and 164 nM, respectively.
Consider `O[C@@H]1CC[C@@H](OCCCF)C[C@H]1N1CCC(c2ccccc2)CC1` (racemic), for which the Ratio Ki came to 1.8 in test [1] and 0.5 in test [5]. The Ki in test [2] was found to be 25.9 nM; in test [3], 47.8 nM; in test [4], 88.2 nM.
For `O[C@@H]1C[C@@H](OCCCF)CC[C@H]1N1CCC(c2ccccc2)CC1` (racemic), the Ratio Ki in test [1] amounted to 12; in test [5] it was 1.6. Besides, the Ki came out at 97.6 nM in test [2], 59.6 nM in test [3] and 717 nM in test [4].
As to `O[C@@H]1Cc2ccccc2C[C@H]1N1CCN(c2ccccc2)CC1` (racemic), the Ratio Ki in test [1] was determined as 22.7; in test [5], 8.3. Besides, the values for the Ki in test [2], in test [3] and in test [4] were 466 nM, 56 nM and 1280 nM, respectively.
Consider `O[C@@H]1Cc2ccccc2C[C@H]1N1CC=C(c2ccccc2)CC1` (racemic), for which the Ki was 24 nM in test [2] and 166 nM in test [4].
Regarding `O[C@@H]1Cc2ccccc2C[C@H]1N1CCC(O)(c2ccccc2)CC1` (racemic), the Ratio Ki in test [1] is 47.7; in test [5], 5.8. Also, the Ki in test [2] came to 67 nM; in test [3] it was 11.5 nM; in test [4], 549 nM.
With `O[C@@H]1Cc2ccccc2C[C@H]1N1CCC(Cc2ccccc2)CC1` (racemic), the values for the Ratio Ki in test [1] and in test [5] were 2.6 and 2.8, respectively. The Ki in test [2] was 65 nM; in test [3], 23.2 nM; in test [4], 60 nM.
For `O[C@@H]1Cc2ccccc2C[C@H]1N1CCC(N2CCCCC2)CC1` (racemic), in that order: 1.4, 2.2, 248 nM, 112 nM and 161 nM.
On the same counts, the results for `O[C@@H]1Cc2ccccc2C[C@H]1N1CCC(c2ccncc2)CC1` (racemic) are 13.4, 0.5, 8.9 nM, 19.3 nM and 258 nM.
On the same counts, the results for `Nc1cccc2c1C[C@@H](O)[C@H](N1CCC(c3ccccc3)CC1)C2` (racemic) are 2.1, 0.2, 55.3 nM, 339 nM and 726 nM.
Turning to `O=C(Nc1cccc2c1C[C@@H](O)[C@H](N1CCC(Cc3ccccc3)CC1)C2)c1ccc(F)cc1` (racemic), the Ki in test [2] is 296 nM; in test [3] it was above 10000 nM; in test [4], 2110 nM.
As for `O[C@@H]1CCCC[C@H]1N1CCc2ccccc2C1` (racemic), the Ki in test [2] came out at 54.3 nM; in test [4] it was 809 nM.
As to `O[C@@H]1CCCC[C@H]1N1CCC(N2CCCCC2)CC1` (racemic), the Ki is above 1000 nM in test [2], 5110 nM in test [3] and 4710 nM in test [4].
As for `O[C@@H]1CCCC[C@H]1N1CCC(c2ccncc2)CC1` (racemic), the figures for the Ki in test [2], in test [3] and in test [4] were above 1000 nM, 3380 nM and 3320 nM, respectively.
Take `CCN(CCCc1ccccc1)[C@@H]1C[C@H](OCc2ccc(F)cc2)CC[C@H]1O` (racemic): the Ratio Ki in test [1] was below 0.1. Moreover, the Ki in test [2] is 10.5 nM; in test [3], 1610 nM; in test [4], 109 nM.
With `O[C@@H]1CC[C@@H](OCc2ccc(F)cc2)C[C@H]1N1CCC(c2ccccc2)(c2ccccc2)CC1` (racemic), the results for the Ratio Ki in test [1] and in test [5] were 3.9 and 0.8, respectively. Moreover, the values for the Ki in test [2], in test [3] and in test [4] were 456 nM, 603 nM and 2360 nM, respectively.
Take `O[C@@H]1CC[C@@H](OCc2ccc(F)cc2)C[C@H]1N1CCC(Cc2ccccc2)CC1` (racemic): the Ratio Ki in test [1] came out at 0.6; in test [5] it was 0.2. Moreover, the Ki in test [2] turned out to be 25.2 nM; in test [3], 110 nM; in test [4], 61.8 nM.
With `O[C@@H]1CC[C@@H](OCc2ccc(F)cc2)C[C@H]1N1CCc2ccccc2C1` (racemic), the Ratio Ki in test [1] and in test [5] was below 0.1 in each case. The Ki in test [2] amounted to 59 nM; in test [3] it was 4670 nM; in test [4] it was 45.9 nM.
Turning to `O[C@@H]1CC[C@@H](OCc2ccc(F)cc2)C[C@H]1N1CCC(N2CCCCC2)CC1` (racemic), the Ratio Ki in test [1] and in test [5] was 0.1 in each case. The Ki is 553 nM in test [2], 4790 nM in test [3] and 543 nM in test [4].
Turning to `O=C(c1ccc(F)cc1)C1CCN([C@@H]2C[C@H](OCc3ccc(F)cc3)CC[C@H]2O)CC1` (racemic), the Ratio Ki in test [1] was 0.6; in test [5] it was below 0.1. Also, the Ki was 59.4 nM in test [2], 1030 nM in test [3] and 640 nM in test [4].
Take `CCN(CCCc1ccccc1)[C@@H]1CCCC[C@H]1O` (racemic): the Ki in test [2] was 115 nM; in test [3] it was above 10000 nM; in test [4], 652 nM.
With `O[C@@H]1Cc2cccc(OCCF)c2C[C@H]1N1CCC(c2ccccc2)CC1` (racemic), in test [5], the Ratio Ki turned out to be 10.7.
For the molecule `O[C@@H]1Cc2ccccc2C[C@H]1N1CCC(c2ccccc2)CC1` (racemic) [BENZOVESAMICOL], the Ki in test [2] came to 26.1 nM; in test [4] it was 96.4 nM.
As for `O[C@@H]1CCCC[C@H]1N1CCC(c2ccccc2)CC1` (racemic) [VESAMICOL], in test [4], the Ki is 112 nM.

The record behind these values is ChEMBL document CHEMBL3588818 (Eur J Med Chem, 2015).
